From US7632952B2, “Benzothiazoles and the use thereof as medicaments” (Aventis Pharma S.A., priority 2004, dated 2009) come the findings set out here.

In one assay the target is T1, Aurora 2 (Homo sapiens, UniProt O14965).
T1 construct: A complete recombinant Aurora 2 enzyme, the N-terminal end of which was labeled with histidine; His tag (N); made in house; host or cells: E. coli
T1 sequence (O14965 1-403): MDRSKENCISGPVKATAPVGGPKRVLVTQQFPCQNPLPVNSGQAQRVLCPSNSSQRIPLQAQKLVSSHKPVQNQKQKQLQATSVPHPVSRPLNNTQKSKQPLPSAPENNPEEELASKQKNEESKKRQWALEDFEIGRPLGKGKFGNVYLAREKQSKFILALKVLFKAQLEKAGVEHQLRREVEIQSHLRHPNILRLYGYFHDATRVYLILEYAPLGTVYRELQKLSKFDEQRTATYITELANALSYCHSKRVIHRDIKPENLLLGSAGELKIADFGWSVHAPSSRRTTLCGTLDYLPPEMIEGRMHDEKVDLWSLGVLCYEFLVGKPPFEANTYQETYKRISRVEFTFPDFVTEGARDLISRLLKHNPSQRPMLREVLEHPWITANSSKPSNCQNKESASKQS
As to the kind of experiment: Aurora 2 kinase radioactivity scintillation test. The assay is classed as biochemical. As to the method: The inhibitory effect of the compounds toward the kinase Aurora 2 is determined via a radioactivity scintillation test.
A complete recombinant Aurora 2 enzyme, the N-terminal end of which was labeled with histidine, was expressed in E. coli and purified to a quality close to homogeneity.
The C-terminal fragment (Q1687-H2101) of an NuMA (nuclear protein which is associated with the Mitotic Apparatus) expressed in E. coli, and the N-terminal end of which was labeled with histidine, was purified by chromatography with nickel chelate and used as substrate in the Aurora 2 kinase test.
The kinase activity of Aurora 2 is measured by scintillation on a microplate saturated with nickel chelate (New England Nuclear, SMP107 model). Each well contains 100 μl of the following solution: 0.02 μM of Aurora 2; 0.5 μM of NuMA substrate; 1 μM of ATP supplemented with 0.5 μCi of ATP-[^33P]. The solutions are incubated for 45 minutes at 37° C. The test buffer is then removed and the wells are rinsed twice with 300 μl of kinase buffer. The radioactivity is measured in each well using a Packard Model Top Count NXT machine.
The background noise is measured in duplicate in wells containing the radioactive ATP alone containing buffered kinase treated in the same manner as for the other samples.
The activity of the control is determined by measuring in duplicate the radioactivity in the complete test mixture (ATP, Aurora 2 and NuMA substrate), in the absence of test compound.
The inhibition of the activity of Aurora 2 with a compound of the invention is expressed as a percentage of inhibition of the control activity in the absence of test compound. Staurosporin is added to each plate as inhibition control.

A further assay concerns the target CDK4/cyclin D1 (Homo sapiens, UniProt P11802). As to the kind of experiment: CDK4/cyclin D1 Flashplate test in 96-well format. Format: biochemical. As to the method:
2. CDK4/cyclin D1 Protocol:
Purification of the CDK4-HA/cyclin D1-(His)6 Complex by IMAC (Immobilized Metal Affinity Chromatography):
Two recombinant baculoviruses bearing the human sequences coding, respectively, for CDK4-HA (C-terminal fusion with the hemaglutinin tag) and for cyclin D1-(His)6 are used to coinfect insect Sf9 cells. Sixty hours after the start of the coinfection, the cells are harvested by centrifugation and then frozen at −20° C. until the time of use.
CDK4/cyclin D1 Flashplate Test in 96-Well Format
A test in 96-well “Flashplate” plates coated with streptavidin is used to evaluate the inhibition of the CDK4/cyclin D1 kinase complex by the products of the invention. To perform this test, the biotinylated peptide substrate, a fragment of the pRb protein (biotinyl-[…]-amide) is dissolved at a concentration of 2 mM in kinase buffer (HEPES/NaOH 50 mM, NaCl 1 mM, MgCl2 5 mM, pH 7.5) in order to constitute a stock solution stored at −20° C. in the form of 110 μl aliquots. On the day of the experiment, an aliquot of this solution is thawed and diluted in kinase buffer containing 1 mM of dithiothreitol, and added to the buffer extemporaneously, in order to obtain a final peptide concentration of 2.571 μM. 70 μl of this solution are added to each well of the Flashplate in order to obtain a final substrate concentration of 1.8 μM during the enzymatic reaction, performed in a final volume of the reaction medium of 100 μl (cf. below). Intermediate dilutions of inhibitors (products of the invention) at various concentrations are prepared in DMSO from stock solutions at 10 mM in separate tubes. 1000 μM, 333.3 μM, 111.1 μM, 37.03 μM, 12.35 μM, 4.11 μM and 1.37 μM dilutions are thus prepared. 1 μl of each of these solutions (or 1 μl of DMSO for the controls) is then transferred into the wells of the test plate. Into each well are then added 19 μl of a solution of a mixture of adenosine triphosphate (ATP) and of ATPy^33P in the kinase buffer at a concentration of 5.26 μM of ATP total and 78.9 μCi/ml of ^33P. The enzymatic reaction is triggered by addition of 10 μl per well of a solution of CDK4/cyclin D1 at 250 nM in the kinase buffer containing 1 mM of dithiothreitol (or 10 μl of kinase buffer containing 1 mM of dithiothreitol for the reaction blanks).
After addition of all the reagents, the test plate is incubated at 30° C. with orbital stirring at 650 rpm. After the incubation, the plate is washed three times with 300 μl per well of PBS (phosphate-buffered saline, pH=7.4, without calcium or magnesium, reference 10010-015, Gibco BRL). The incorporation of ^33P into the substrate peptide is quantified by scintillation counting using a Packard Topcount.NXT machine. The inhibitory activity of the products of the invention is evaluated by measuring the inhibitory concentration that allows a 50% reduction in the enzymatic activity (IC50).

The next assay has as its target CDK2/cyclin E (Homo sapiens, UniProt P24941). Nature of the assay: CDK2/cyclin E Flashplate test in 96-well format. The assay is classed as biochemical. The following applies: read-out: CDK2 IC50. As to the method:
1. Protocol CDK2/cyclin E:
Purification of the CDK2/cyclin E-(His)6 Complex by IMAC (Immobilized Metal Affinity Chromatography):
Two recombinant baculoviruses bearing the human sequences coding, respectively, for CDK2 and cyclin E (the latter comprising a C-terminal hexahistidine tag) are used to coinfect insect Sf21 cells. Two to three days after the start of coinfection, the cells are harvested by centrifugation and then stored at −40° C. until the time of use. After thawing and mechanical lysis of the cells, the complex present in the lysis supernatant is purified by affinity chromatography on nickel (IMAC), and stored at −80° C.
CDK2/cyclin E Flashplate Test in 96-Well Format
A format in 96-well plates coated with streptavidin is used to test the activity of the compounds on the kinase activity of CDK2/cyclin E.
To perform this test, the biotinylated peptide substrate, a fragment of the pRb protein (biotinyl-[…]-OH) is dissolved at a concentration of 1 mM in kinase buffer (HEPES/NaOH 50 mM, NaCl 1 mM, MgCl2 5 mM, pH 7.5) in order to constitute a stock solution stored at −20° C. in the form of 110 μl aliquots. On the day of the experiment, an aliquot of this solution is thawed and diluted in kinase buffer containing 1 mM of dithiothreitol, and added to the buffer extemporaneously, in order to obtain a concentration of 14.3 μM. 70 μl of this solution are added to each well of the Flashplate in order to obtain a final substrate concentration of 10 μM during the enzymatic reaction, performed in a final volume of the reaction medium of 100 μl (cf. below).
Intermediate dilutions of inhibitors (products of the invention) at various concentrations are prepared in DMSO from stock solutions at 10 mM in separate tubes. 1000 μM, 333.3 μM, 111.1 μM, 37.03 μM, 12.35 μM, 4.11 μM and 1.37 μM dilutions are thus prepared. 1 μl of each of these solutions (or 1 μl of DMSO for the controls) is transferred into the wells of the test plate.
Into each well are then added 19 μl of a solution of a mixture of adenosine triphosphate (ATP) and of ATPy^33P in the kinase buffer at a concentration of 5.26 μM of ATP total and 52.6 μCi/ml of ^33P. The enzymatic reaction is triggered by addition of 10 μl per well of a solution of CDK2/cyclin E at 200 nM in the kinase buffer containing 1 mM of dithiothreitol (or 10 μl of kinase buffer containing 1 mM of dithiothreitol for the reaction blanks).
After addition of all the reagents, the plate is incubated at 30° C. with orbital stirring at 650 rpm.
When the incubation is complete, the plate is washed three times with 300 μl per well of PBS (phosphate-buffered saline, pH=7.4, without calcium or magnesium, reference 10010-015, Gibco BRL). The incorporation of ^33P into the peptide is quantified by scintillation counting using a Packard Topcount.NXT machine. The inhibitory activity of the products of the invention is evaluated by measuring the inhibitory concentration that allows a 50% reduction in the enzymatic activity (IC50).

The subject of a further assay is HeLa. As to the kind of experiment: HeLa proliferation. The assay is classed as cell-based. The note with it: Homo sapiens, read-out: HeLa proliferation EC50 (nM) DG.

Structures are written as SMILES. Counter-ions that a name gives are not always drawn.

For orientation: IC50 means the point on the concentration scale where inhibition reaches its midpoint.

Chain of CDK4/cyclin D1 (P11802 whole entry): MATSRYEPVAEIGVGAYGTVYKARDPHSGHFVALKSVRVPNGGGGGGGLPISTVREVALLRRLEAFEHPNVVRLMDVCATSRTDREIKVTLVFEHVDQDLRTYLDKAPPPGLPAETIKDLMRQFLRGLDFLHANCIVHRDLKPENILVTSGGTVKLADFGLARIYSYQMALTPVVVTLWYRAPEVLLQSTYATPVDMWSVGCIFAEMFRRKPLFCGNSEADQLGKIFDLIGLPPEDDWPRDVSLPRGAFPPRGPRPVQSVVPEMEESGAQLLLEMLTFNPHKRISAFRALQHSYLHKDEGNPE
Chain of CDK4/cyclin D1 (P24385 whole entry partner): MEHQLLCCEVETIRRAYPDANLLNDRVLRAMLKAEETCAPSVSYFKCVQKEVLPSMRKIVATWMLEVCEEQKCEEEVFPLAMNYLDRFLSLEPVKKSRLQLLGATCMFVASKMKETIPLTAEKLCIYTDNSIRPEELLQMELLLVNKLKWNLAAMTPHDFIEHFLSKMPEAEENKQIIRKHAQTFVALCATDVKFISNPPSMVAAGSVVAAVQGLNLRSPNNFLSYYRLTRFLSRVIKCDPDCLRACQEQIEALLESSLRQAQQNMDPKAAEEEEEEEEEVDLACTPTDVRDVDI

In the case of `CCN(CC)CCC(=O)Nc1nc2ccc(OS(=O)(=O)c3cccs3)cc2s1` [Example 33g, Thiophene-2-sulfonic acid 2-(3-diethyl-aminopropionylamino)benzothiazol-6-yl ester; compound with trifluoroacetic acid], the IC50 on Aurora 2 was 1.9 µM; against CDK4/cyclin D1 it was over 10 µM; on CDK2/cyclin E, 5 µM.
Regarding `O=C(CCC1CCNCC1)Nc1nc2ccc(OS(=O)(=O)c3cccs3)cc2s1` [Example 33a, Thiophene-2-sulfonic acid 2-(3-piperid-4-ylpropionylamino)benzothiazol-6-yl ester; compound with trifluoroacetic acid], the concentration for half-maximal inhibition (IC50) at Aurora 2 was 0.436 µM; against CDK4/cyclin D1 it was over 10 µM; on CDK2/cyclin E, 3.24 µM.
`CC(C)N(CCNc1ccc(S(=O)(=O)Oc2ccc3nc(NC(=O)CCCCCCCN)sc3c2)cc1)C(C)C` [Example 40, 4-(2-diisopropylaminoethylamino)benzenesulfonic acid 2-(8-aminooctanoylamino)benzothiazol-6-yl ester]: the values for the IC50 against CDK4/cyclin D1 and on CDK2/cyclin E were 0.253 µM and 0.209 µM, respectively. Also, the EC50 with HeLa came out at 7550 nM.
Taken in the same sequence, the figures for `CC(C)NCCNc1ccc(S(=O)(=O)Oc2ccc3nc(NC(=O)CCC4CCNCC4)sc3c2)cc1` [Example 24, 4-(2-Isopropylaminoethylamino)benzenesulfonic acid 2-(3-piperid-4-ylpropionylamino)benzothiazol-6-yl ester hydrochloride] were 1.67 µM, 0.864 µM and over 12500 nM.
Taken in the same sequence, the figures for `CCCC(=O)Nc1nc2ccc(OS(=O)(=O)c3ccc(NCC(C)(C)O)cc3)cc2s1` [Example 80, 4-(2-hydroxy-2-methylpropylamino)benzene-sulfonic acid 2-butyrylaminobenzothiazol-6-yl ester hydrochloride] were 0.674 µM, 0.057 µM and 408 nM.
For `CCCC(=O)Nc1nc2ccc(OS(=O)(=O)c3ccc(NCCN(C(C)C)C(C)C)cc3)cc2s1` [Example 79, 4-(2-diisopropylaminoethylamino)benzenesulfonic acid 2-butyrylaminobenzothiazol-6-yl ester hydrochloride] the same measures were 0.07 µM, 0.043 µM and 140 nM.
On to `CC(C)NCCNc1ccc(S(=O)(=O)Oc2ccc3nc(NC(=O)C4CCCC4)sc3c2)cc1` [Example 69, 4-(2-isopropylaminoethylamino)benzenesulfonic acid 2-(cyclopentanecarbonylamino)benzothiazol-6-yl ester], for which the IC50 turned out to be 0.914 µM against CDK4/cyclin D1 and 0.299 µM at CDK2/cyclin E. Moreover, the EC50 in the assay with HeLa worked out at 1130 nM.
Taken in the same sequence, the figures for `CC(C)NCCNc1ccc(S(=O)(=O)Oc2ccc3nc(NC(=O)CCCCCCCN)sc3c2)cc1` [Example 21, 4-(2-isopropylaminoethylamino)benzenesulfonic acid 2-(8-aminooctanoylamino)benzothiazol-6-yl ester hydrochloride] were 0.539 µM, 0.227 µM and 2460 nM.
For `O=C(Nc1nc2ccc(OS(=O)(=O)c3ccc(F)cc3)cc2s1)C1CC1` [Example 7, 4-fluorobenzenesulfonic acid 2-(cyclopropane-carbonylamino)benzothiazol-6-yl ester] the same measures were over 10 µM, 0.123 µM and 1580 nM.
Turning to `CCCC(=O)Nc1nc2ccc(OS(=O)(=O)c3ccc(NCCNC(C)C)cc3)cc2s1` [Example 73, 4-(2-isopropylaminoethylamino)benzenesulfonic acid 2-butyrylaminobenzothiazol-6-yl ester; compound with trifluoroacetic acid], the IC50 on CDK4/cyclin D1 came to 0.246 µM; on CDK2/cyclin E, 0.185 µM. The EC50 in the assay with HeLa was found to be 249 nM.
